This is an account of results in patent US12168673B2 (Mitopower, Inc., priority 2022, dated 2024).

Structures are written as SMILES. Read-outs that look alike come from different tables or passages of the source.

Data set [1] in a line: Kinetic solubility. The following applies: aqueous buffer, kinetic from dmso stock, 0.1 M phosphate buffered saline pH 7.4, target 100 μM, 1.5 h. Format: physicochemical. The method, then: The target compound concentration was 100 μM (kinetic), the assay buffer was 0.1 M phosphate buffered saline pH 7.4, the mixing period was 1.5 h (kinetic). The sample was prepared by centrifugation or filtration and the detection method used was HPLC with UV-vis spectrometry.

Data set [2] in a line: Caco-2 permeability assay. Particulars: human. The text has this: The endpoint measured is the intestinal permeability expressed as apparent permeability—Papp value. All permeability values are represented as ×10^−6 cm/sec.
For data set [3], the system named is Jurkat Cells. Kind of data set: Cellular NAD+ levels in Jurkat cells (LCMS/MS). Particulars: 30 μM, four hours of incubation. Format: cell-based. As for the experimental part:
Compounds 100, 101 and 102 were weighted out to prepare 60 μM stock solutions in RPMI media. 200 ng/mL solution of Rac-tenofovir d6 (Vivan Life-Sciences) was prepared in methanol (MeOH) and placed at −20° C. until use.
Jurkat Cells, sourced from NCCS Pune, were cultured in RPMI media containing FBS & Antibiotics. Cells from different flasks (90% confluent) were pooled into a 15 mL conical tube and centrifuged for 5 mins at 1200 rpm for 5 mins. The supernatant solution was discarded, and the pellet was washed with 5 mL sterile PBS (without Ca^2+ & Mg^2+). The tube was then centrifuged at 1200 rpm for 5 mins and the supernatant was discarded. The cell pellet was resuspended in 7 mL of RPMI media, and a cell count was done using 10 uL of the cell solution. 1.5 million cells from the cell solution were seeded into 1.5 mL microcentrifuge tubes. […] The tubes were placed in racks and gently swirled to mix the compounds into the media containing the cells. These tubes were then incubated for 4 hours in a 37° C. incubator at 5% CO2. After 4 hours of incubation the cells were spun down at 1000 rpm for 10 mins, the supernatant was discarded carefully, and cells were snap frozen in liquid nitrogen. When the samples were run, the extraction of the cells was on ice, cells were lysed using 20 uL deionized water and then ice cold 80% methanol containing the internal standard—Rac-Tenofovir D was added. The tubes were then vortexed at 2500 rpm for 8 minutes and then centrifuged at […] for 10 minutes. 150 uL of the supernatant was carefully transferred to HPLC vials and was analyzed for NAD^+ on the Abscised 4000 Q Trap LCMS/MS system. A C18, 3.5 μm, 2.1×100 mm, Bridge Column was used in the LC. The mobile phase consisted of 10 mM ammonium acetate with 0.1% acetic acid and 0.1% hexylamine as Solvent-A and 10 mM Ammonium acetate with 0.1% acetic acid and 0.1% hexylamine in 95/5 MeOH/H2O as Solvent-B. The gradient used was 0 mins-0.0% B, 0.5 mins-100% B, 1.5 mins-100% B, 3.0 mins-100% B, 3.1 mins-0.0% B, 7.0-STOP. The column flow rate was 0.5 mL/min. The sample injection volume was […].

Data set [4] can be described thus: PK study in rats (plasma). Format: in vivo. Particulars: for half-life: read-out: T1/2 (converted); for AUC(0-t): read-out: AUC0-1.
The test system of data set [5] is Huh-7 Cells. Kind of data set: Cellular NAD+ levels in Huh-7 cells (LCMS/MS). Format: cell-based. Particulars: 125 μm, four hours of incubation. The method, then:
Huh-7 Cells, sourced from NCCS Pune, were cultured in RPMI media containing FBS & Antibiotics. Cells from different flasks (80-90% confluent) were pooled into a 15 mL conical tube and centrifuged for 5 mins at 1200 rpm for 5 mins. The supernatant solution was discarded, and the pellet was washed with 5 mL sterile PBS (without Ca^2+ and Mg^2+). The tube was then centrifuged at 1200 rpm for 5 mins and the supernatant was discarded. The cell pellet was resuspended in 7 mL of RPMI media, and a cell count was done using 10 uL of the cell solution. 1.5 million cells from the cell solution were seeded into 1.5 mL microcentrifuge tubes. […] The tubes were placed in racks and gently swirled to mix the compounds into the media containing the cells. These tubes were then incubated for 4 hours in a 37° C. incubator at 5% CO2. After 4 hours of incubation the cells were spun down at 1000 rpm for 10 mins, the supernatant was discarded carefully, and cells were snap frozen in liquid nitrogen. When the samples were run, the extraction of the cells was on ice, cells were lysed using 20 uL deionized water and then ice cold 80% methanol containing the internal standard—Rac-Tenofovir D was added. The tubes were then vortexed at 2500 rpm for 8 minutes and then centrifuged at […] for 10 minutes. 150 uL of the supernatant was carefully transferred to HPLC vials and was analyzed for NAD^+ on the Abscised 4000 Q Trap LCMS/MS system. A C18, 3.5 μm, 2.1×100 mm, Bridge Column was used in the LC. The mobile phase consisted of 10 mM ammonium acetate with 0.1% acetic acid & 0.1% hexylamine as Solvent-A and 10 mM Ammonium acetate with 0.1% acetic acid and 0.1% hexylamine in 95/5 MeOH/H2O as Solvent-B. The gradient used was 0 mins-0.0% B, 0.5 mins-100% B, 1.5 mins-100% B, 3.0 mins-100% B, 3.1 mins-0.0% B, 7.0-STOP. The column flow rate was 0.5 mL/min. The sample injection volume was […].

Data set [6] in a line: Human hepatocyte clearance. Format: in vitro ADME. Particulars: human hepatocytes, 1 μM. The method, then:
(§1) A hepatocyte vial was taken out from the liquid nitrogen tank and was thawed in a water bath maintained at 37° C. The thawed cell suspension was transferred into a torsion tube containing 50 mL of thawing media (Xenotech). The thawing media containing hepatocytes was centrifuged at 1000 rpm for 5 min, the supernatant was discarded and the pellet was resuspended in 2 ml of Xenotech OptiIncubate Media. The cells were counted by using a haemocytometer after mixing an aliquot of cell suspension with equal volume of trypan blue. The cell suspension was diluted to a working density of 2 million cells with DMEM media without FBS/incubation media.
(§2) The assay was performed in duplicates (n=2). 150 μL of 2 million cell working stock of hepatocyte cell suspension was added to a 24 well plate and incubated in a 37° C. incubator, with speed of 500 RPM for 10 min. 150 μL of 2 μM working stock of test compound was incubated separately. The reaction at 0, 15, 30, 60 and 90 min was stopped by precipitating 20 μL of incubation mixture with 200 μL of acetonitrile containing internal standard. […] The supernatant was separated and diluted 1:1 with water before injecting in LC-MS/MS analysis.

Data set [7] deals with human hepatocytes. As to the kind of experiment: Human hepatocyte clearance. Format: in vitro ADME. As for the experimental part:
as §1, §2

Data set [8] has as its system human hepatocytes. As to the kind of experiment: Human hepatocyte stability.
Protocol: (§7) 10 mM stock solution of test compound was prepared in DMSO and diluted to a concentration of 1 mM with DMSO. Working concentration of 2 μM was prepared by further dilution with PBS. Preincubation mixture of 150 μL of hepatocyte cell suspension (1,000,000 cells/mL, INVITROGRO HT medium buffer), was added to vials for preincubation for 10 min @37° C.
(§8) 150 μL of 2 μM working stock of the test compound was added to the cell suspension and incubated at @37 C at 500 rpm. The reaction was stopped at 0, 15, 30, 60 and 90 min by precipitating 50 μL of the incubation mixture with 150 μL of acetonitrile. Samples were vortexed for 5 min at 1200 rpm and centrifuged at 4000 rpm for 10 min. 150 μL of the supernatant was diluted with 150 μL of water and injected in MS system (SCIEX, API 4500 Q Trap) for analysis.
Data set [9] in a line: in vitro. The following applies: human, plasma. As for the experimental part:
(§3) The test compounds were weighed and prepared as 10 mM stocks in 100% DMSO. 10 μM is the final test concentration for all compounds.
(§4) The samples were prepared by spiking test compound(s) in plasma at 10 μM final concentration. 200 μL of plasma containing the test compound was added into the donor well (RED Chamber) of the insert. Simultaneously 350 μL of dialysis buffer (1×PBS) was added into the receiver well (white chamber). Two measurements were made for each test compound. The plate was covered with a sealer and incubated at 37° C. degrees on an orbital shaker at 500 rpm for 5 hours.
(§5) After incubation, 25 μl of plasma (RED chamber) and 25 μl of buffer (white chamber) samples were separately collected into separate centrifugation tubes. Plasma and buffer samples were precipitated with 200 μL of 100% acetonitrile containing internal standards. 25 μl of T0 (T Zero) plasma samples (samples before 5 hours incubation) were collected (To samples were processed immediately after the preparation of plasma working stock solution. These samples serve as a measure for calculating the percentage recovery of the test compound and precipitated using 100% acetonitrile containing internal standards). The samples were vortexed at 1000 rpm for 5 min and centrifuged at 4000 rpm for 10 min. The supernatant was diluted 2-fold with water and injected into LC-MS/MS.
(§6) The % of Plasma bound/unbound fraction was calculated by the following equation: % Unbound or % free=100*(Fc/Tc); % Recovery=100 (Fc+Tc)/[…] where Tc=Total compound concentration as determined by the calculated concentration on the plasma side of the membrane (concentration in plasma chamber), Fc=Free compound concentration as determined by the calculated concentration on the buffer side of the membrane (concentration in buffer chamber) and T0=Total compound concentration as determined before dialysis.

Data set [10] has as its system Human Plasma Protein. As to the kind of experiment: in vitro. The method, then: as §3, §4, §5, §6
The test system of data set [11] is human hepatocytes. Particulars: 1 μM.
Protocol: as §7, §8
Where [12] appears, read: read-out: Mean Solubility (μg/mL).

Turning to `CCCSc1ccc2nc(NC(=O)OC)[nH]c2c1` [Albendazole, reference compound], the solubility at 1.5 h is 0.66 µM in [1] (read-out: Mean Solubility) and 0.2 µg/mL in data set [1] (setting [12]).

Take `NC(=O)N1c2ccccc2C=Cc2ccccc21` [Carbamazepine, reference compound]: in data set [2], the Papp A→B was found to be 22.2 ×10⁻⁶ cm/s, the Papp B→A amounted to 23.4 ×10⁻⁶ cm/s and the efflux ratio was found to be 1.1. Moreover, in [2] (Caco-2, % Recovery A to B), the recovery was 89.3%. In data set [2] (Caco-2, % Recovery B to A), the recovery is 91%.

With `O=c1[nH]c2ccccc2n1CCCN1CCC(n2c(=O)[nH]c3cc(Cl)ccc32)CC1` [Domperidone, reference compound], in data set [2], the apparent permeability from apical to basolateral (Papp A→B) was 3.9 ×10⁻⁶ cm/s, the Papp B→A was found to be 20.3 ×10⁻⁶ cm/s and the efflux ratio turned out to be 5.2. For the same compound, the recovery in data set [2] (Caco-2, % Recovery A to B) worked out at 61.8%. Moreover, in data set [2] (Caco-2, % Recovery B to A), the recovery was found to be 76.4%.

Take `CC(C(=O)O)c1ccc(-c2ccccc2)c(F)c1` (stereo not shown) [Flurbiprofen, reference compound]: the solubility at 1.5 h turned out to be 111 µM in data set [1] (read-out: Mean Solubility) and 27 µg/mL in data set [1] (setting [12]).

In the case of `O=C(O)c1cccnc1` [Nicotinic acid], the “NAD+ level increase compared to untreated cells” value in data set [3] is reported as “showed statistical significance in terms of NAD^+ level increases”. In [4] (rat, plasma, iv, 40 mg/kg), the Cmax is 1240 ± 833 µM, the Tmax came out at 15 min, the clearance is 5.07 mL/min/kg and the AUC(0-t) was determined as 1080 ± 426 µM·h. The half-life in data set [4] (rat, plasma, iv, 40 mg/kg, rats, Group 4: nicotinic acid 40 mg/kg IV) is 26.9 ± 16.6 min. Moreover, in data set [4] (rat, plasma, iv, 40 mg/kg, read-out: Vss), the Vd worked out at 0.211 ± 0.156 L/kg. For the same compound, in [4] (rat, plasma, po, 200 mg/kg), the highest level (Cmax) was 519 ± 83.3 µM, the Tmax turned out to be 79.8 ± 34.8 min, the bioavailability worked out at 29% and the AUC(0-t) was determined as 1680 ± 305 µM·h. Besides, the half-life in data set [4] (rat, plasma, po, 200 mg/kg, rats, Group 3: nicotinic acid 200 mg/kg PO) is 85.2 ± 25.8 min. In addition, the “IV pharmacokinetics profile (in words)” value in [4] (rats, IV) was “No distribution phase”. The “NAD+ level increase compared to untreated cells” value in data set [5] is listed as “showed an increase”.

`C[C@]12CC[C@H]3[C@@H](CCC4=CC(=O)CC[C@@]43C)[C@@H]1CC[C@@H]2O` [Testosterone, reference compound]: the half-life at 1 μM in data set [6] (0-90 min, read-out: T½) came to 9.14 min. The hepatocyte CLint at 1 μM in data set [6] (read-out: Intrinsic Clearance (CL Int)) came to 75.8 µL/min/1e6 cells. For the same compound, the “Remarks (clearance class)” value in data set [7] is listed as “High*”. Also, the “% Parent Remaining” value came to 100% in data set [8] (0 mins); 28% in data set [8] (15 mins); 11% in data set [8] (30 mins); 3% in data set [8] (60 mins); 1% in data set [8] (90 mins).

For the compound `CC(=O)CC(c1ccccc1)c1c(O)c2ccccc2oc1=O` (stereo not shown) [Warfarin, reference compound], the “Remarks (clearance class)” value in [7] was “Low*”. Further, the values for the fraction unbound at 5 h, 10 μM in [9] (% Bound in plasma), in data set [9] (% Unbound in plasma) and in [9] (Fraction unbound) were 0.0044, 0.0054 and 0.005, respectively. In addition, the “Remarks (binding class)” value in [10] is on record as “High binding”. Also, the “% Parent Remaining” value in [11] (0 h) came to 100%; in data set [11] (0.25 h) it was 91%; in [11] (0.5 h), 89%; in data set [11] (1 h) it was 96%; in [11] (1.5 h), 96%.
